The subject of series [1] is MDA-MB-231. Kind of series: Induction of apoptosis in human MDA-MB-231 cells assessed as downregulation of Bcl2 expression up to 10 uM incubated for 24 hrs by Western blotting analysis. Type of series: functional, cell-based. The conditions noted are these: dose microM <=10, time 24.0 hrs. In general terms: A western blot detects proteins with antibodies after separation by electrophoresis.

The target in a further series is Misshapen-like kinase 1 (Homo sapiens, UniProt Q8N4C8). Kind of series: Inhibition of human MINK assessed as residual kinase activity at 1 uM relative to control.
Misshapen-like kinase 1, sequence (Q8N4C8 whole entry, looked up): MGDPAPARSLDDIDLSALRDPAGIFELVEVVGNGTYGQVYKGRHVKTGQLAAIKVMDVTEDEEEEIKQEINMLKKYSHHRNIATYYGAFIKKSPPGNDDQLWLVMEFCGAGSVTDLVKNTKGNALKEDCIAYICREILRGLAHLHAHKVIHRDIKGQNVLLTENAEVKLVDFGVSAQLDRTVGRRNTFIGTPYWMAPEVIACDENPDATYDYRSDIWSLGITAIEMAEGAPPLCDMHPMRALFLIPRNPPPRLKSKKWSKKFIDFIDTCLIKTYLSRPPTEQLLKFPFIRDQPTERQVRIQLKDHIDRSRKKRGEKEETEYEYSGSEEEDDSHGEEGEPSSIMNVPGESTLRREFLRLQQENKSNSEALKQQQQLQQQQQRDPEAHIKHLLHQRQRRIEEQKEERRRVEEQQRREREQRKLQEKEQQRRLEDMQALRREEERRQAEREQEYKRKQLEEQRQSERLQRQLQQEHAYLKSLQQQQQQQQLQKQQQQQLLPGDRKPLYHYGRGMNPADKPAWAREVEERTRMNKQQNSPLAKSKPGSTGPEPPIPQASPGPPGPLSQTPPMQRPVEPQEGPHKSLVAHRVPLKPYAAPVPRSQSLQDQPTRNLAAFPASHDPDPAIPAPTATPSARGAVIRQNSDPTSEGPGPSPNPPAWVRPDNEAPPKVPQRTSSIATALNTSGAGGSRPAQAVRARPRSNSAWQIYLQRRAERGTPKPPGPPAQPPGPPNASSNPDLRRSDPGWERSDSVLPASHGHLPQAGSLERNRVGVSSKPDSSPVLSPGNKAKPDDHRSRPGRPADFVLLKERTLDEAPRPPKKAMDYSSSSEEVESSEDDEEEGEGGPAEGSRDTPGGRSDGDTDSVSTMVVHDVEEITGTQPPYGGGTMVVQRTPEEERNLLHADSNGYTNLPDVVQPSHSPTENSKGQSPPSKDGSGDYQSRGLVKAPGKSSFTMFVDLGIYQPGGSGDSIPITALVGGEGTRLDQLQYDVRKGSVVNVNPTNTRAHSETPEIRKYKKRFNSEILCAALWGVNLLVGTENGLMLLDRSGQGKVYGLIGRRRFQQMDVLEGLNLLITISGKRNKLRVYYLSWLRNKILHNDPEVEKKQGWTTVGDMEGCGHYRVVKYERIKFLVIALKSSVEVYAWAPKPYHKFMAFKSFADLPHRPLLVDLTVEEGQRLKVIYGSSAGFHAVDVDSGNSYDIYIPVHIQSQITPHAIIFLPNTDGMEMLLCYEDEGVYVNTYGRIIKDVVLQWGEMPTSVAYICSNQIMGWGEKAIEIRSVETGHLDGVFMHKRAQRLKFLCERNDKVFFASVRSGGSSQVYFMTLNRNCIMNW
For series [2], the target named is Vascular endothelial growth factor receptor 2 (Homo sapiens, UniProt P35968). Kind of series: Inhibition of human KDR/VEGFR2 assessed as residual kinase activity at 1 uM relative to control.
Vascular endothelial growth factor receptor 2, sequence (P35968 whole entry): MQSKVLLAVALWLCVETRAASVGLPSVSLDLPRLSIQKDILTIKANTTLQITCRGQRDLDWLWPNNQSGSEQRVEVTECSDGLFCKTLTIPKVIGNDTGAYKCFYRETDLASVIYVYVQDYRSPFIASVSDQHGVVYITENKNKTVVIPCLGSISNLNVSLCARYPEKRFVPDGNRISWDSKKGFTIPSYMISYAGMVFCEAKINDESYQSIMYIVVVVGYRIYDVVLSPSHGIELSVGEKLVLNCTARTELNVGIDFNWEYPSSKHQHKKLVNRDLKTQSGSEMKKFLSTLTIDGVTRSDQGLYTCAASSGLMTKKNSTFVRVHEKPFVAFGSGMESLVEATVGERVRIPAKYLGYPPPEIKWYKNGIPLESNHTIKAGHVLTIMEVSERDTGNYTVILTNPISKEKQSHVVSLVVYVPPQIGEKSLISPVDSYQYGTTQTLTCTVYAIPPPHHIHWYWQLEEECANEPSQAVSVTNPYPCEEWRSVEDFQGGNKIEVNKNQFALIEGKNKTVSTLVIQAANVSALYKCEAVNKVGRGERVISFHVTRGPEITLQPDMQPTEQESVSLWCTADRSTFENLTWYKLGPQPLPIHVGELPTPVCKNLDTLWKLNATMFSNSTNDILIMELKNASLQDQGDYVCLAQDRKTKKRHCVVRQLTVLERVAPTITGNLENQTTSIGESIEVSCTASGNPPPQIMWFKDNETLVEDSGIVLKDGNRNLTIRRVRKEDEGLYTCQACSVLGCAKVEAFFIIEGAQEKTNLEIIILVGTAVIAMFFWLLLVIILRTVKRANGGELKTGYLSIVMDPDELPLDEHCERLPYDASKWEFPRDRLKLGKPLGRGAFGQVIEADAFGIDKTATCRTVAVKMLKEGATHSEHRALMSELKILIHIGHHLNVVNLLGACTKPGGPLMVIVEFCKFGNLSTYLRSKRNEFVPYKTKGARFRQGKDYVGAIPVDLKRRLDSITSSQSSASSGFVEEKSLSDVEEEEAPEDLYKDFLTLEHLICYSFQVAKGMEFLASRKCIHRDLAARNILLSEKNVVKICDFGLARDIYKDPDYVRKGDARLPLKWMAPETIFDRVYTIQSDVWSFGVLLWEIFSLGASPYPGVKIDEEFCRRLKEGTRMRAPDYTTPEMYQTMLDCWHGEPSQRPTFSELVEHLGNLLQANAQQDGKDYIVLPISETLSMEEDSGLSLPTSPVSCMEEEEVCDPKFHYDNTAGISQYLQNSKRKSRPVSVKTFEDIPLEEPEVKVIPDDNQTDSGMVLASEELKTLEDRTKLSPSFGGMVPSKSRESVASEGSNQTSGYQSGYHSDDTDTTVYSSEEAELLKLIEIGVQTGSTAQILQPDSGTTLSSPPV
For the next series, the system named is HDLEC. Kind of series: Inhibition of cell migration in VEGF-C-induced human dermal lymphatic endothelial cells assessed as cell migration at 100 nM incubated for 24 hrs by inverted microscopy based by scratch wound healing assay. Type of series: functional, tissue-based.
Series [3] concerns the target T1, Vascular endothelial growth factor receptor 3 (Homo sapiens, UniProt P35916). Kind of series: Inhibition of VEGFR3 in human dermal lymphatic endothelial cells assessed as inhibition of STAT5 phosphorylation incubated for 24 hrs by Western blot analysis. The conditions noted are these: HDLEC.
For series [4], the system named is MDA-MB-436. Kind of series: Inhibition of colony formation in human MDA-MB-436 cells at 2.5 uM incubated for 24 hrs by clonogenic assay. Type of series: functional.
For series [5], the system named is MDA-MB-231. Kind of series: Induction of apoptosis in human MDA-MB-231 cells assessed as accumulation at G1 phase incubated for 48 hrs by flow cytometry. Format: functional, cell-based.
Series [6] deals with MDA-MB-436. Kind of series: Induction of apoptosis in human MDA-MB-436 cells assessed as apoptotic cells at 2.5 uM incubated for 48 hrs by flow cytometry. Format: functional. Background: In flow cytometry, cells or beads pass a laser one at a time.
The test system of series [7] is MDA-MB-231. As to the kind of experiment: Induction of apoptosis in human MDA-MB-231 cells assessed as cleaved caspase 3 up to 10 uM incubated for 24 hrs by Western blotting analysis. Type of series: functional, cell-based. The conditions noted are these: dose microM <=10, time 24.0 hrs.
Series [8] has as its system MDA-MB-436. As to the kind of experiment: Antimigratory activity against human MDA-MB-436 cells assessed as suppression of migration measured after 24 hrs by Wound healing assay. Format: functional, cell-based.
In series [9] the test system is MDA-MB-436. As to the kind of experiment: Upregulation of E-cadherin protein expression in human MDA-MB-436 cells up to 10 uM incubated for 24 hrs by Western blot analysis. Type of series: functional, cell-based. The conditions noted are these: dose microM <=10, time 24.0 hrs.
The target in series [10] is T1, Vascular endothelial growth factor receptor 3. Kind of series: Inhibition of VEGFR3 in human MDA-MB-231 cells assessed as inhibition of ERK1/2 phosphorylation at 2.5 uM incubated for 24 hrs by Western blot analysis. Format: cell-based.
Series [11] shares this target. Kind of series: Inhibition of VEGFR3 phosphorylation in human MDA-MB-436 cells at 2.5 uM incubated for 24 hrs by Western blot analysis. Format: cell-based.
Series [12] shares this target. As to the kind of experiment: Inhibition of VEGFR3 in human MDA-MB-436 cells assessed as inhibition of ERK1/2 phosphorylation at 2.5 uM incubated for 24 hrs by Western blot analysis. Type of series: cell-based.
Series [13] can be described thus: AUC (0 to t) in Sprague-Dawley rat at 1 mg/kg, iv by LC-MS analysis. Format: ADME, organism-based. Details: dose 1 mg/kg. The conditions noted are these: in vivo.
Series [14] is described as follows: Clearance in Sprague-Dawley rat at 1 mg/kg, iv by LC-MS analysis. The conditions noted are these: in vivo. Format: ADME, organism-based.
Series [15] can be described thus: Toxicity in po dosed BALB/c mouse xenografted with MDA-MB-231 cells assessed as maximum tolerated dose. Format: organism-based. The conditions noted are these: in vivo.
The nature of series [16]: Toxicity in BALB/c mouse xenografted with MDA-MB-231 cells assessed as creatinine level in blood at 300 mg/kg, po. Type of series: organism-based. The conditions noted are these: in vivo.
Series [17] is described as follows: Toxicity in BALB/c mouse xenografted with MDA-MB-231 cells assessed as change in lung at 300 mg/kg, po by hematoxylin and eosin staining based analysis. Type of series: organism-based. The conditions noted are these: in vivo.
In series [18] the test system is Mus musculus. As to the kind of experiment: Decrease in E-cadherin level in BALB/c mouse xenografted with MDA-MB-231 cells in tumor tissue at 25 mg/kg, po by immunohistochemistry analysis. Type of series: functional, organism-based.
Series [19] deals with T2, Vascular endothelial growth factor receptor 1 (Mus musculus) (UniProt P35969).
T2 sequence (whole entry): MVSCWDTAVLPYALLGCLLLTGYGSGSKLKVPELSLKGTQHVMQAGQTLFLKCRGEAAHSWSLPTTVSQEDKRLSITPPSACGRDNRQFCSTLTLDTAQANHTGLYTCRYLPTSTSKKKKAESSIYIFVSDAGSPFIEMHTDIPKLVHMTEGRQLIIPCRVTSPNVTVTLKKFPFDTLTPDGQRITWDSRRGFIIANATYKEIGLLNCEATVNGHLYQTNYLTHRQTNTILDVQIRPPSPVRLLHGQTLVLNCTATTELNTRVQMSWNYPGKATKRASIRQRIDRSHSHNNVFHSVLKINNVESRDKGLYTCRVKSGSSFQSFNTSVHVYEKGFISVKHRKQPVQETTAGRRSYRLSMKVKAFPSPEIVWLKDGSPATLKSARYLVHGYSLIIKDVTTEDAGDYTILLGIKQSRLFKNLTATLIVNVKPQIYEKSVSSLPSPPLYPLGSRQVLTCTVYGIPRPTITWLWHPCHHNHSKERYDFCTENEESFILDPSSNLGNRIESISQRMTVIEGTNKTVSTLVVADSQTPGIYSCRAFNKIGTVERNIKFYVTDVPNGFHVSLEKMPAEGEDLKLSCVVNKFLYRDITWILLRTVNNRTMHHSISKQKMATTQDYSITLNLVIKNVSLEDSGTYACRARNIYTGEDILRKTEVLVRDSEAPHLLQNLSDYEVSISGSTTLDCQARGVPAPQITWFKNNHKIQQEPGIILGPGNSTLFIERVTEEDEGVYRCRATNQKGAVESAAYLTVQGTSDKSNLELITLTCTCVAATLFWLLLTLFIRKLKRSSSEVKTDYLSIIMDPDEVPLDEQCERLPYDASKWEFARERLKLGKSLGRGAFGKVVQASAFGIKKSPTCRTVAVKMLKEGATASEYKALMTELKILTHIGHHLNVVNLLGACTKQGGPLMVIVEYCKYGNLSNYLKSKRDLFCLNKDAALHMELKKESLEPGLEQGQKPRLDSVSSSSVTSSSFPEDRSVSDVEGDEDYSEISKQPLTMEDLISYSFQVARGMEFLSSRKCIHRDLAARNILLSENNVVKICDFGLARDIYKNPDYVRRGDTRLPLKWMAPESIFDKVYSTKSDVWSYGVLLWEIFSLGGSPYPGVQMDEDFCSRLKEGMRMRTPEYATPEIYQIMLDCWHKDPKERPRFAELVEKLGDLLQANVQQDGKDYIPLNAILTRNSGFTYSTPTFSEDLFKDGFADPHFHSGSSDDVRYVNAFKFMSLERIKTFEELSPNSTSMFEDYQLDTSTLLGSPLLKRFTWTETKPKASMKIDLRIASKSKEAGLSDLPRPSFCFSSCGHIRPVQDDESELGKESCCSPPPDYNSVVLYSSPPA
Kind of series: In vivo inhibition of VEGFR1 phosphorylation in BALB/c mouse xenografted with MDA-MB-231 cells at 25 mg/kg, po by immunohistochemistry analysis. Type of series: functional, organism-based.

For series [20], the system named is Mus musculus. Kind of series: In vivo inhibition of VEGFR2 phosphorylation in BALB/c mouse xenografted with MDA-MB-231 cells at 25 mg/kg, po by immunohistochemistry analysis. Format: functional, organism-based.
The subject of series [21] is Mus musculus. Kind of series: Upregulation of E-cadherin protein expression human MDA-MB-231 cells injected into vein of BALB/c mouse lung metastatic model at 50 mg/kg, po once a day measured on day 21 by […]. Type of series: functional, organism-based.

The source made the active and inactive calls. The calls are words filed in the database; no cut-off is given here.

In general, inhibition refers to the change of the read-out against control, counted positive when it falls. The AUC(0-t) is the area under the concentration-time curve up to a stated or last time point. A low value points to less exposure. The term clearance denotes the volume of plasma or blood freed of the substance per unit of time. A word on the MTD: it is the highest dose tested that stayed within the study's limit of toxicity.

T1 sequence (P35916 whole entry): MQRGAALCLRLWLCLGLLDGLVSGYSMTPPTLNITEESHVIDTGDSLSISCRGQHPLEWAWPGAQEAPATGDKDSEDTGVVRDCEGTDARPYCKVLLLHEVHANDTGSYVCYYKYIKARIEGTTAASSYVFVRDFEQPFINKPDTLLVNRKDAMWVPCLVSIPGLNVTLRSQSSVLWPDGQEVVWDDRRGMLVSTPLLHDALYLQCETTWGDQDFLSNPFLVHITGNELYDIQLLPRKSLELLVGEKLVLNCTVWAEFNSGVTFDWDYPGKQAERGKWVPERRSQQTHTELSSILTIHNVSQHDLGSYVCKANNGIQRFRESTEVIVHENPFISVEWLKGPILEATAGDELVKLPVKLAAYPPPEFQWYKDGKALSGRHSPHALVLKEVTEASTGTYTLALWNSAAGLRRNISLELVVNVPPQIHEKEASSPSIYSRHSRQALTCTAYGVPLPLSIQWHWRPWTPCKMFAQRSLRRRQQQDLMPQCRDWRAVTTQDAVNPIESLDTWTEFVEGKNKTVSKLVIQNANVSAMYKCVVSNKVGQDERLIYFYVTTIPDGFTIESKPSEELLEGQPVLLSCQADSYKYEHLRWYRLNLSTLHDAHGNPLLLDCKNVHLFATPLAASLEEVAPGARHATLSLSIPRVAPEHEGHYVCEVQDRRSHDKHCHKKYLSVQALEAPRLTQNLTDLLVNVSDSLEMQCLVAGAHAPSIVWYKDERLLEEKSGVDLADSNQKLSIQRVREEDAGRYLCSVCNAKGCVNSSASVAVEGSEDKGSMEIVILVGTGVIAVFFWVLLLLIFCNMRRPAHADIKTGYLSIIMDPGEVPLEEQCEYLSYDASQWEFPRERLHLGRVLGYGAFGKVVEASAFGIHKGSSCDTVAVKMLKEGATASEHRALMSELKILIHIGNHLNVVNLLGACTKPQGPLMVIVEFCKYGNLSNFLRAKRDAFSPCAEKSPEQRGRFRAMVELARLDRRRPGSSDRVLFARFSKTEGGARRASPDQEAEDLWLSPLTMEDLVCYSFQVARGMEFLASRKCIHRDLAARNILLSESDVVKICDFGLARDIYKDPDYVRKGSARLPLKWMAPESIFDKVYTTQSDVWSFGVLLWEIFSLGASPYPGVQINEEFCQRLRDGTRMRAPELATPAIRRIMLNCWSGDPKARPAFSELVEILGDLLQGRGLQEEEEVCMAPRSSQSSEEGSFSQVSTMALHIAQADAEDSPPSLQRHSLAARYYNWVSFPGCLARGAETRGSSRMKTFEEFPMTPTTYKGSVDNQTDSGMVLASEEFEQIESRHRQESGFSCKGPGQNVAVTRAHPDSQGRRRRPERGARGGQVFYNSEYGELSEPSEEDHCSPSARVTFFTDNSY

Regarding `CN1CCN(c2ccc(-c3cc4c(N5CCN(C(=O)Nc6ccc(Cl)c(C(F)(F)F)c6)CC5)ncnc4s3)cc2)CC1`, the result with MDA-MB-231 [1], in the series on HDLEC, with MDA-MB-231 [7], with MDA-MB-436 [8], in the series on MDA-MB-436 [9] and with Mus musculus [18] was Active. Also, the outcome in the series on Mus musculus [21] was Active. Moreover, the Activity on Misshapen-like kinase 1 was 5%; in series [2], 85%; in the series on MDA-MB-231 [5] it was “Dose-Dependent Effect”; in the series on MDA-MB-436 [6], 30.5%; in series [16], “Non-Toxic”; in series [17], “Non-Toxic”. Besides, the inhibition result in series [3] was “Dose-Dependent Effect”. In the series on MDA-MB-436 [4], this compound gave an inhibition at 2.5 µM of 100%. The inhibition result in series [10], in series [11] and in [12] was “Active” throughout. Further, the AUC(0-t) in [13] came to 2570 ng·h/mL. The compound further gave a clearance in series [14] of 4.8 mL/min/kg. The MTD in series [15] stood at 300 mg/kg. In addition, the result (in [19]; in the series on Mus musculus [20]) was inactive.

For the origin of these results see ChEMBL document CHEMBL4837240 (J Med Chem, 2021).
